# Laboratory results reported in patent publication US11739161B2, “Methods for treating and diagnosing prostate cancer” (Tufts Medical Center, Inc., priority 2017, dated 2023).
# What was measured:
# Type in all cases: cell-based, human
# [1] = system: PC-3 cells; assay: RNASE4-induced cell proliferation (MTT assay)
# Protocol: FIGS. 11A-F. RNASE4 induces PC-3 cell proliferation and phosphorylation of AKT and S6. (A) Exogenous RNASE4 (1 μg/ml) stimulates PC-3 cells proliferation in the presence of 2% FBS. Cell numbers were determined by MTT assay. (B) Time course of AKT and S6 phosphorylation of serum-starved PC-3 cells by RNASE4 (1 μg/ml). Left panels, immunoblots; right panels, quantification of p-AKT and p-S6 normalized to total AKT and S6 by Image J. (C) Effect of AKT inhibitor MK-2206, PI3K inhibitors LY294002 and Wortmannin, and mTOR inhibitor Rapamycin on RNASE4-induced PC-3 cell proliferation. Cells were pre-incubated with the inhibitors at the indicated concentrations for 1 hour prior to be stimulated by RNASE4 (1 μg/ml) for 3 days. Cell numbers were determined by MTT assay. (D) Human phospho-RTK antibody array analysis of starved PC-3 cells treated with or without 1 μg/ml RNASE4 for 5 minutes. (E) Time course of AXL phosphorylation stimulated by RNASE4 in PC-3 cells. Serum-starved PC-3 cells were treated with 1 μg/ml RNASE4 for different time. Cell lysates were analyzed for total AXL and phopho-AXL by immunoblotting. Left panels, immunoblots; right panel, quantification phospho-AXL normalized to total AXL by Image J analysis. (F) Effect of AXL inhibitor R428 on RNASE4-induced PC-3 cell proliferation. Serum-starved PC-3 cells were incubated with 1 or 3 μM R428 for 3 hours and then stimulated by 1 μg/ml of RNASE4 for 3 days. Cell numbers were determined by MTT assay. Data shown are means±SEM of a representative experiments in triplicates of 3 independent repeats. **P≤0.01 and ***P≤0.001, by unpaired two-tailed Student's t test.
# [2] = system: DU145 cells; assay: RNASE4-induced cell proliferation (MTT assay)
# Protocol: (§1) FIGS. 10A-E. RNASE4 induces prostate cancer cell proliferation and phosphorylation of AKT and S6. (A and B) Exogenous RNASE4 (1 μg/ml) stimulates cell proliferation (A) and cell cycle progression (B) of DU145 cells cultured in the presence of 2% FBS. Cell numbers were determined by MTT assay. Cell cycle status was determined by flow cytometry after 24 hour incubation with RNASE4. (C) Time course of AKT and S6 phosphorylation of serum-starved DU145 cells by RNASE4 (1 μg/ml). Left panels, immunoblots; right panels, quantification of p-AKT and p-S6 normalized to total AKT and S6 by Image J analysis. […] Cells were pre-incubated with the inhibitors at the indicated concentrations for 1 hour prior to be stimulated by 1 μg/ml of RNASE4 for 5 minutes. Top panels, immunoblots; bottom panels, Image J quantification of p-AKT and p-S6 normalized to total AKT and S6. (E) Effect of AKT inhibitor MK-2206, PI3K inhibitors Wortmannin and LY294002, and mTOR inhibitor Rapamycin on RNASE4-induced cell proliferation. DU145 cells were serum-starved overnight, incubated with the inhibitors for 1 hour, and then treated with RNASE4 (1 μg/ml) for three days. Cell numbers were determined by MTT assay. Data shown are from a representative experiments in triplicates of 3 independent repeats. Error bars indicate SEM. **P≤0.01, by unpaired two-tailed Student's t test.
# FIGS. 12A-F. RNASE4 induces AXL phosphorylation. (A) Human phospho-receptor tyrosine kinase (RTK) antibody array analysis. Serum-starved DU145 cells were treated with or without 1 μg/ml of RNASE4 for 5 minutes. […] Cell lysates were analyzed by antibodies against total AXL and phospho-AXL, with β-actin as the loading control. Left panels, immunoblots; right panel, Image J quantification of p-AXL normalized to total AXL. […] Left panels, immunoblots; right panel, quantification. […] Cell numbers were determined by MTT assay. […] Cell lysates were analyzed for AKT and P6 phosphorylation by immunoblotting. Top panels, immunoblots; bottom panels, quantification of phospho-AKT and phospho-S6 by Image J analyses normalized to total AKT and P6, respectively. […]
# [3] = system: AKT and S6 phosphorylation in DU145 cells; assay: RNASE4-induced phosphorylation of AKT and S6 (immunoblot); settings: then 1 μg/ml RNASE4 5 minutes
# Protocol: as §1
# (§2) FIGS. 12A-F. RNASE4 induces AXL phosphorylation. (A) Human phospho-receptor tyrosine kinase (RTK) antibody array analysis. Serum-starved DU145 cells were treated with or without 1 μg/ml of RNASE4 for 5 minutes. A total of 1.5 mg cell lysate protein was blotted on each array membrane. […] (B) Immunoblot analysis of RNASE4-stimulated AXL phosphorylation. DU145 cells were serum-starved overnight and treated with 1 μg/ml of RNASE4 for the indicated time. Cell lysates were analyzed by antibodies against total AXL and phospho-AXL, with β-actin as the loading control. Left panels, immunoblots; right panel, Image J quantification of p-AXL normalized to total AXL. (C) Immunoblot analysis of phospho-AXL in response to stimulation by ANG, RNase A, and RNASE4. DU145 cells were serum-starved overnight and treated with 1 μg/ml of ANG, RNase A, or RNASE4 for 15 minutes. Left panels, immunoblots; right panel, quantification. (D) Effect of AXL inhibitor R428 on RNASE4-induced cell proliferation. Serum-starved DU145 cells were incubated with 1 or 3 μM R428 for 3 hours and then stimulated by 1 μg/ml of RNASE4 for 3 days. Cell numbers were determined by MTT assay. Data shown are means±SEM of a representative experiment (in triplicates) of 3 independent repeats. **P≤0.01 and ***P≤0.001, by unpaired two-tailed Student's t test. (E) Effect of AXL inhibitor R428 on RNASE4-induced AKT and P6 phosphorylation. Serum-starved DU145 cells were incubated with 1 or 3 μM R428 for 3 hours and then stimulated by 1 μg/ml of RNASE4 for 5 minutes. Cell lysates were analyzed for AKT and P6 phosphorylation by immunoblotting. Top panels, immunoblots; bottom panels, quantification of phospho-AKT and phospho-S6 by Image J analyses normalized to total AKT and P6, respectively. (F) Schematic presentation of proposed involvement of AXL in RNASE4-stimulated cellular events.
# [4] = system: AXL phosphorylation in DU145 cells; assay: AXL phosphorylation (phospho-RTK array, immunoblot); settings: serum-starved DU145, 1 μg/ml protein
# Protocol: as §2
# Human Phospho-RTK Arrays were purchased from R&D Systems. […] Protein concentrations were quantified by Bradford Assay and 1.5 mg cell lysate was used per array. Pixel densities on were analyzed by ImageJ. […]
# [5] = serum-starved DU145, 1 or 3 μM R428 3 hours
molecule,measurement,setting,value
NC1(c2ccc(-c3nc4ccn5c(=O)[nH]nc5c4cc3-c3ccccc3)cc2)CCC1 [MK-2206],RNASE4-induced cell proliferation,"[1]; PC-3, inhibitor 1 hour, then RNASE4 1 μg/ml 3 days",abolished
same,RNASE4-induced cell proliferation,"[2]; serum-starved DU145, inhibitor 1 hour, then RNASE4 1 μg/ml three days",abolished
same,RNASE4-induced AKT phosphorylation,"[3]; DU145, inhibitor 1 hour",inhibited
same,RNASE4-induced S6 phosphorylation,"[3]; DU145, inhibitor 1 hour",inhibited
Nc1nc(Nc2ccc3c(c2)CCC(N2CCCC2)CC3)nn1-c1cc2c(nn1)-c1ccccc1CCC2 (stereo not shown) [R428],RNASE4-induced cell proliferation,"[1]; serum-starved PC-3, 1 or 3 μM R428 3 hours, then 1 μg/ml RNASE4 3 days",inhibted
same,RNASE4-induced cell proliferation,"[2]; serum-starved DU145, 1 or 3 μM R428 3 hours, then 1 μg/ml RNASE4 3 days",inhibted
same,RNASE4-induced AKT phosphorylation,[3]; [5],inhibted
same,RNASE4-induced S6 phosphorylation,[3]; [5],inhibted
"ANG: Angiogenin, another member of the pancreatic ribonuclease superfamily [reference compound]",phosphorylation of AXL,[4],do not induce
"RNase A: member of the pancreatic ribonuclease superfamily (protein, UniProt P61823 27-150, looked up) Ribonuclease pancreatic: KETAAAKFERQHMDSSTSAASSSNYCNQMMKSRNLTKDRCKPVNTFVHESLADVQAVCSQKNVACKNGQTNCYQSYSTMSITDCRETGSSKYPNCAYKTTQANKHIIVACEGNPYVPVHFDASV",phosphorylation of AXL,[4],do not induce
